# Data: US8623859B2, “Bradykinin B1 antagonists” (Evotec AG, priority 2008, dated 2014)
# Where a name gives a salt, the structure may show the parent alone.
# Biological target: T1, human B1 (Homo sapiens, UniProt P46663)
# T1 construct: host or cells: CHO-K1
# T1 sequence (P46663 1-353): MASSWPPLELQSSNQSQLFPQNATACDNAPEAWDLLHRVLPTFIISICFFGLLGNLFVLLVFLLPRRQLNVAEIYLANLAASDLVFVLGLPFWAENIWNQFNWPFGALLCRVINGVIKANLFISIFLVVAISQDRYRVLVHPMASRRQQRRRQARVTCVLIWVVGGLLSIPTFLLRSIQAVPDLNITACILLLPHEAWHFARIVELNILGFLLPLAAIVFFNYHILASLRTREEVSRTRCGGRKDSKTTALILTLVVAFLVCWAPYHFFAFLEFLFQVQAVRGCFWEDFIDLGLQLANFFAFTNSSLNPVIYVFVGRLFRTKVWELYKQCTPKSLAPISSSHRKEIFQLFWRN
# Assay: Calcium flux assay for Bradykinin B1 antagonist, CHO-K1 cell line expressing human B1
# Type: cell-based
# Settings: CHO-K1 cells expressing human B1, agonist Lys-(Des-Arg)-Bradykinin, read-out: Potency (IC50 value against human B1)
# Protocol: Calcium Flux Assay for Bradykinin B1 Antagonist
# The potency to inhibit the Bradykinin B1 receptors was determined for the compounds of this invention in a cell-based fluorescent calcium-mobilization assay. The assay measures the ability of test compounds to inhibit Bradykinin B1 receptor agonist-induced increase of intracellular free Ca^2+ in cell lines expressing B1.
# The change of the intracellular Ca^2+ concentration is monitored with a specifically designed fluorescent plate reader (FlexStation, Molecular Devices).
# CHO-K1 cell line expressing human B1 was purchased from Euroscreen (Gosselies, Belgium, with reference name hBl-D1). CHO-K1 cell lines expressing rat B1 or mouse B1 were established in the following way: the full-length receptor-coding cDNA clones were obtained by PCR performed on rat or mouse brain cDNAs. The respective cDNAs were cloned into an expression vector under the control of a CMV promotor. The resultant plasmids were introduced into CHO-K1 cells with liposome technology (FuGENE; Roche Diagnostics, Basel), according to the standard protocols described by the manufacturer. Cell lines expressing a Bradykinin receptor were selected in the culture medium containing 400 μg/ml G418 (Sigma). From selected cell populations, monoclonal cell lines were isolated by single cell cloning. The expression of Bradykinin receptors was confirmed by immunofluorescence staining of the cells, as well as by calcium flux assay.
# Human B1-expressing cells were grown in Nutrient Mixture Ham's F12 (Sigma) containing 10% Foetal bovine serum (Sigma) and 400 μg/ml G418 (Sigma), 5 μg/ml puromycim (Sigma); Rat B1 and mouse B1-expressing cells were grown in DMEM/F12 medium (Sigma) containing 10% Foetal bovine serum (Sigma) and 400 μg/ml G418 (Sigma).
# For the calcium flux assay, 80% confluent cells were detached from the culture vessels with Versene (Gibco; for human B1 cell-line) or with 1× trypsin-EDTA solution (Sigma; for rodent B1 cell-line), and seeded into 384-well plates (Cell binding Surface; Corning, N.Y.; #3683) at a density of 15,000 cells per well for human B1 or at a density of 20,000 cells per well for rodent B1. Cells were seeded in a volume of 50 μl in medium without antibiotics and incubated overnight in a humidified atmosphere with 5% CO2 at 37° C. The following day, the medium was replaced with 20 μl of 5 μM Fluo-4AM dye (Molecular Probes) in assay buffer (2.5 mM probenicid, 1 mg/ml pluronic acid, 0.1% BSA, 135 mM NaCl, 5 mM KCl, 1.8 mM CaCl, 1 mM MgCl2, 10 mM HEPES, 5.6 mM glucose, 0.05% gelatine, pH 7.4). The calcium indicator loaded cells were incubated at 37° C. for 2 hrs. Extracellular dye was then removed and each well was filled with 45 μl of assay buffer. Cell plates were kept in dark until used. Test compounds were assayed at 8 concentrations in triplicate. Serial 10-fold dilutions in 100% DMSO were made at a 100-times higher concentration than the final concentration, and then diluted 1:10 in assay buffer. 5 μl of each diluted compound was added to the well of cell plates (yielding final concentration with 1% DMSO), and incubated for 30 min at 25° C. before the addition of B1 agonist on the FlexStation.
# The addition of agonist 20 μl per well to the assay plate was carried out on the FlexStation while continuously monitoring Ca^2+-dependent fluorescence at 538 nm. The integrated values, normalized with the background fluorescence, were plotted against the logarithm of the antagonist concentrations.
row,Compound,IC50 [nM]
1,"COc1cc(C)c(S(=O)(=O)N(Cc2cnc(C(=O)N3CCN(CC4CCN(C)CC4)CC3)o2)C2CC2)c(C)c1 [Ex 245, N-Cyclopropyl-4-methoxy-2,6-dimethyl-N-{[2-({4-[(1-methylpiperidin-4-yl)methyl]piperazin-1-yl}carbonyl)-1,3-oxazol-5-yl]methyl}benzenesulfonamide]",100 to 1000
2,"COc1cc(C)c(S(=O)(=O)N(C)Cc2nnc(C(=O)N3CCN(CCCN4CCCC4)CC3)s2)c(C)c1 [Ex 327, 4-Methoxy-N,2,6-trimethyl-N-[(5-{[4-(3-pyrrolidin-1-ylpropyl)piperazin-1-yl]carbonyl}-1,3,4-thiadiazol-2-yl)methyl]benzenesulfonamide]",100 to 1000
3,"COc1cc(C)c(S(=O)(=O)N(C)Cc2cc(C(=O)N(C)Cc3ccc(CN4CCC(C(=O)N(C)C)C4)cc3)co2)c(C)c1 (centres unmarked) [Ex 131, 1-(4-{[{[5-({[(4-Methoxy-2,6-dimethylphenyl)sulfonyl](methyl)amino}methyl)furan-3-yl]carbonyl}(methyl)amino]methyl}benzyl)-N,N-dimethylpyrrolidine-3-carboxamide]",100 to 1000
4,"COc1cc(C)c(S(=O)(=O)N(Cc2nc(C(=O)N3CCC(c4ccncc4)CC3)co2)C2CC2)c(C)c1 [Ex 231, N-Cyclopropyl-4-methoxy-2,6-dimethyl-N-({4-[(4-pyridin-4-ylpiperidin-1-yl)carbonyl]-1,3-oxazol-2-yl}methyl)benzenesulfonamide]",10 to 100
5,"COc1cc(C)c(S(=O)(=O)N(C)Cc2cc(C(=O)N(C)CCc3ccc(C4=NCCN4)cc3)co2)c(C)c1 [Ex 5, N-{2-[4-(4,5-dihydro-1H-imidazol-2-yl)phenyl]ethyl}-5-({[(4-methoxy-2,6-dimethylphenyl)sulfonyl](methyl)amino}methyl)-N-methylfuran-3-carboxamide]",< 10
6,"COc1cc(C)c(S(=O)(=O)N(Cc2nc(C(=O)N(C)C3CCC(N4CCN(C)CC4)CC3)co2)C2CC2)c(C)c1 (centres unmarked) [Ex 243, 2-({Cyclopropyl[(4-methoxy-2,6-dimethylphenyl)sulfonyl]amino}methyl)-N-methyl-N-[4-(4-methylpiperazin-1-yl)cyclohexyl]-1,3-oxazole-4-carboxamide trifluoroacetate]",10 to 100

# Other lines, results leading:
row,IC50 [nM],Compound
1,< 10,"COc1cc(C)c(S(=O)(=O)N(Cc2nc(C(=O)N(C)Cc3ccc(CN4CCCC(O)C4)cc3)co2)C2CC2)c(C)c1 (centres unmarked) [Ex 180, 2-({Cyclopropyl[(4-methoxy-2,6-dimethylphenyl)sulfonyl]amino}methyl)-N-{4-[(3-hydroxypiperidin-1-yl)methyl]benzyl}-N-methyl-1,3-oxazole-4-carboxamide]"
2,10 to 100,"COc1cc(C)c(S(=O)(=O)N(C)Cc2cc(C(=O)NCc3ccc(C4=NCCN4)cc3)co2)c(C)c1 [Ex 6, N-[4-(4,5-dihydro-1H-imidazol-2-yl)benzyl]-5-({[(4-methoxy-2,6-dimethylphenyl)sulfonyl](methyl)amino}methyl)furan-3-carboxamide]"
3,10 to 100,"COc1cc(C)c(S(=O)(=O)N(Cc2cc(C(=O)N(C)Cc3ccc(CN4CCC(OC)C4)cc3)co2)C2CC2)c(C)c1 (centres unmarked) [Ex 145, 5-({Cyclopropyl[(4-methoxy-2,6-dimethylphenyl)sulfonyl]amino}methyl)-N-{4-[(3-methoxypyrrolidin-1-yl)methyl]benzyl}-N-methylfuran-3-carboxamide]"
4,10 to 100,"COc1cc(C)c(S(=O)(=O)N(C)Cc2nc(C(=O)N(C)Cc3ccc(CN4CC(OC)C4)cc3)co2)c(C)c1 [Ex 173, N-{4-[(3-Methoxyazetidin-1-yl)methyl]benzyl}-2-({[(4-methoxy-2,6-dimethylphenyl)sulfonyl](methyl)amino}methyl)-N-methyl-1,3-oxazole-4-carboxamide]"
5,100 to 1000,"COc1cc(C)c(S(=O)(=O)N(C)Cc2noc(C(=O)N3CCN(CCN4CCCC4)CC3)n2)c(C)c1 [Ex 308, 4-Methoxy-N,2,6-trimethyl-N-[(5-{[4-(2-pyrrolidin-1-ylethyl)piperazin-1-yl]carbonyl}-1,2,4-oxadiazol-3-yl)methyl]benzenesulfonamide]"
